Source: patent publication US6420330B1, “Use of quaternary carboxylic acid alkanolamine ester salts as microbicide agents” (Cognis Deutschland GmbH, priority 1997, dated 2002)

How the values were obtained:
Assay in all cases: DGHM suspension test, microbicidal activity
Format in all cases: cell-based
[1] = system: Candida albicans ATCC 10231
Procedure: (§1) The microbicidal activity of the quanterary carboxylic acid alkanolamine ester salts used in accordance with the invention was tested against the following selected test germs:
(§2) The effectiveness of the compound to be tested was determined by the suspension test in accordance with the guidelines of the Deutsche Gesellschaft for Hygiene and Mikrobiologie (DGHM). Test solutions containing quatemary carboxylic acid alkanolamine ester salts in the quantities shown in the Tables of 50, 100, 200, 400 and 800 mg/l were prepared using water with a hardness of 17° dH and optionally isopropanol.
(§3) At room temperatures, quantities of 0.1 ml test germ suspension were pipetted into test tubes containing 10 ml of the test solutions described above and mixed. After various contact times of 5, 15, 30 and 60 minutes, 1 ml of material was taken from the test tubes by pipette and transferred to 9 ml inactivator solution (inactivators: 3.0% Tween, 0.3% lecithin, 0.1% histidine). After in activation for at least 5 and at most 30 minutes, the living germ count was determined by plating out onto casein peptone-soybean flour peptone (CaSo)-agar plates. Using a spiral plater, the inactivating mixture was directly plated out onto CaSo-agar. The samples were incubated for 24 to 72 hours at 37° C. and macroscopically evaluated for growth. The destruction time or the residual germ count was determined in this way. The germ count of an unchallenged water control is related to the germ count of the inactivated test solution taking the dilution into account. The higher the value, the better the microbicidal effect. The symbol < means that the logarithmic reductuon factor is below the indicated value or, in the case of the symbol >, above the indicated value. The abbreviation CU stands for “concentration used”.

[2] = system: Pseudomonas aeruginosa ATCC 15442
Procedure: as §1, §2, §3

[3] = system: Staphylococcus aureus ATCC 6538
Procedure: as §1, §2, §3

[4] = CU 50 mg/l, contact time 5 mins.
[5] = CU 50 mg/l, contact time 15 mins.
[6] = CU 50 mg/l, contact time 30 mins.
[7] = CU 50 mg/l, contact time 60 mins.
[8] = CU 100 mg/l, contact time 5 mins.
[9] = CU 100 mg/l, contact time 15 mins.
[10] = CU 100 mg/l, contact time 30 mins.
[11] = CU 100 mg/l, contact time 60 mins.
[12] = CU 200 mg/l, contact time 5 mins.
[13] = CU 200 mg/l, contact time 15 mins.
[14] = CU 200 mg/l, contact time 30 mins.
[15] = CU 200 mg/l, contact time 60 mins.
[16] = CU 400 mg/l, contact time 5 mins.
[17] = CU 400 mg/l, contact time 15 mins.
[18] = CU 400 mg/l, contact time 30 mins.
[19] = CU 400 mg/l, contact time 60 mins.
[20] = CU 800 mg/l, contact time 5 mins.
[21] = CU 800 mg/l, contact time 15 mins.
[22] = CU 800 mg/l, contact time 30 mins.
[23] = CU 800 mg/l, contact time 60 mins.

CCCCCCCC(=O)OCC[N+](C)(CCOC(=O)CCCCCCC)CCOC(=O)CCCCCCC.COS(=O)(=O)[O-] [Example 2, methyl triethanolammonium tricaprylic acid ester methosulfate]
logarithmic reduction factor [1, 4]: 3.44 | logarithmic reduction factor [1, 5]: >4.71 | logarithmic reduction factor [1, 6]: >4.82 | logarithmic reduction factor [1, 7]: >4.68 | logarithmic reduction factor [1, 8]: >4.73 | logarithmic reduction factor [1, 9]: >4.71 | logarithmic reduction factor [1, 10]: >4.82 | logarithmic reduction factor [1, 11]: >4.68 | logarithmic reduction factor [1, 12]: >4.73 | logarithmic reduction factor [1, 13]: >4.71 | logarithmic reduction factor [1, 14]: >4.82 | logarithmic reduction factor [1, 15]: >4.68 | logarithmic reduction factor [1, 16]: >4.73 | logarithmic reduction factor [1, 17]: >4.71 | logarithmic reduction factor [1, 18]: >4.82 | logarithmic reduction factor [1, 19]: >4.68 | logarithmic reduction factor [1, 20]: >4.73 | logarithmic reduction factor [1, 21]: >4.71 | logarithmic reduction factor [1, 22]: <4.82 | logarithmic reduction factor [1, 23]: >4.68 | logarithmic reduction factor [2, 4]: <1.38 | logarithmic reduction factor [2, 5]: <1.70 | logarithmic reduction factor [2, 6]: 3.31 | logarithmic reduction factor [2, 7]: 3.98 | logarithmic reduction factor [2, 8]: <1.38 | logarithmic reduction factor [2, 9]: 3.25 | logarithmic reduction factor [2, 10]: 3.75 | logarithmic reduction factor [2, 11]: 4.49 | logarithmic reduction factor [2, 12]: 1.38 | logarithmic reduction factor [2, 13]: 3.95 | logarithmic reduction factor [2, 14]: 4.40 | logarithmic reduction factor [2, 15]: >5.59 | logarithmic reduction factor [2, 16]: 4.08 | logarithmic reduction factor [2, 17]: >5.70 | logarithmic reduction factor [2, 18]: >5.68 | logarithmic reduction factor [2, 19]: >5.59 | logarithmic reduction factor [2, 20]: 4.42 | logarithmic reduction factor [2, 21]: >5.70 | logarithmic reduction factor [2, 22]: >5.68 | logarithmic reduction factor [2, 23]: >5.59 | logarithmic reduction factor [3, 4]: 3.21 | logarithmic reduction factor [3, 5]: >5.38 | logarithmic reduction factor [3, 6]: >5.50 | logarithmic reduction factor [3, 7]: >5.41 | logarithmic reduction factor [3, 8]: 3.54 | logarithmic reduction factor [3, 9]: >5.38 | logarithmic reduction factor [3, 10]: >5.50 | logarithmic reduction factor [3, 11]: >5.41 | logarithmic reduction factor [3, 12]: 4.32 | logarithmic reduction factor [3, 13]: >5.38 | logarithmic reduction factor [3, 14]: >5.50 | logarithmic reduction factor [3, 15]: >5.41 | logarithmic reduction factor [3, 16]: >5.56 | logarithmic reduction factor [3, 17]: >5.38 | logarithmic reduction factor [3, 18]: >5.50 | logarithmic reduction factor [3, 19]: >5.41 | logarithmic reduction factor [3, 20]: >5.56 | logarithmic reduction factor [3, 21]: >5.38 | logarithmic reduction factor [3, 22]: >5.50 | logarithmic reduction factor [3, 23]: >5.41

CCCCCCCCC(=O)OCC[N+](C)(C)CCOC(=O)CCCCCCCC.COS(=O)(=O)[O-] [Example 3, dimethyl diethanolammonium dipelargonic acid ester methosulfate]
logarithmic reduction factor [1, 4]: 2.86 | logarithmic reduction factor [1, 5]: >4.63 | logarithmic reduction factor [1, 6]: >4.66 | logarithmic reduction factor [1, 7]: >4.67 | logarithmic reduction factor [1, 8]: >4.63 | logarithmic reduction factor [1, 9]: >4.63 | logarithmic reduction factor [1, 10]: >4.66 | logarithmic reduction factor [1, 11]: >4.67 | logarithmic reduction factor [1, 12]: >4.63 | logarithmic reduction factor [1, 13]: >4.63 | logarithmic reduction factor [1, 14]: >4.66 | logarithmic reduction factor [1, 15]: >4.67 | logarithmic reduction factor [1, 16]: >4.63 | logarithmic reduction factor [1, 17]: >4.63 | logarithmic reduction factor [1, 18]: >4.66 | logarithmic reduction factor [1, 19]: >4.67 | logarithmic reduction factor [1, 20]: >4.63 | logarithmic reduction factor [1, 21]: >4.63 | logarithmic reduction factor [1, 22]: >4.66 | logarithmic reduction factor [1, 23]: >4.67 | logarithmic reduction factor [2, 4]: <1.59 | logarithmic reduction factor [2, 5]: 2.99 | logarithmic reduction factor [2, 6]: 3.58 | logarithmic reduction factor [2, 7]: 3.77 | logarithmic reduction factor [2, 8]: 4.36 | logarithmic reduction factor [2, 9]: >5.58 | logarithmic reduction factor [2, 10]: >5.67 | logarithmic reduction factor [2, 11]: >5.53 | logarithmic reduction factor [2, 12]: >5.59 | logarithmic reduction factor [2, 13]: >5.58 | logarithmic reduction factor [2, 14]: >5.67 | logarithmic reduction factor [2, 15]: >5.53 | logarithmic reduction factor [2, 16]: >5.59 | logarithmic reduction factor [2, 17]: >5.58 | logarithmic reduction factor [2, 18]: >5.67 | logarithmic reduction factor [2, 19]: >5.53 | logarithmic reduction factor [2, 20]: >5.59 | logarithmic reduction factor [2, 21]: >5.58 | logarithmic reduction factor [2, 22]: >5.67 | logarithmic reduction factor [2, 23]: >5.53 | logarithmic reduction factor [3, 4]: <1.31 | logarithmic reduction factor [3, 5]: 2.31 | logarithmic reduction factor [3, 6]: 3.01 | logarithmic reduction factor [3, 7]: 4.85 | logarithmic reduction factor [3, 8]: <1.31 | logarithmic reduction factor [3, 9]: 3.67 | logarithmic reduction factor [3, 10]: >5.19 | logarithmic reduction factor [3, 11]: >5.55 | logarithmic reduction factor [3, 12]: 2.05 | logarithmic reduction factor [3, 13]: >5.74 | logarithmic reduction factor [3, 14]: >5.19 | logarithmic reduction factor [3, 15]: >5.55 | logarithmic reduction factor [3, 16]: 3.25 | logarithmic reduction factor [3, 17]: >5.74 | logarithmic reduction factor [3, 18]: >5.19 | logarithmic reduction factor [3, 19]: >5.55 | logarithmic reduction factor [3, 20]: 3.78 | logarithmic reduction factor [3, 21]: >5.74 | logarithmic reduction factor [3, 22]: >5.19 | logarithmic reduction factor [3, 23]: >5.55

CCCCCCCCCC(=O)OCC[N+](C)(CCO)CCOC(=O)CCCCCCCCC.COS(=O)(=O)[O-] [Example 6, methyl triethanolammonium dicapric acid ester methosulfate]
logarithmic reduction factor [1, 4]: <0.87 | logarithmic reduction factor [1, 5]: 1.64 | logarithmic reduction factor [1, 6]: 1.93 | logarithmic reduction factor [1, 7]: 2.62 | logarithmic reduction factor [1, 8]: 1.27 | logarithmic reduction factor [1, 9]: 3.03 | logarithmic reduction factor [1, 10]: 3.75 | logarithmic reduction factor [1, 11]: 4.15 | logarithmic reduction factor [1, 12]: 1.24 | logarithmic reduction factor [1, 13]: 3.66 | logarithmic reduction factor [1, 14]: >4.78 | logarithmic reduction factor [1, 15]: >4.67 | logarithmic reduction factor [1, 16]: 1.38 | logarithmic reduction factor [1, 17]: 3.51 | logarithmic reduction factor [1, 18]: >4.78 | logarithmic reduction factor [1, 19]: >4.67 | logarithmic reduction factor [1, 20]: 1.33 | logarithmic reduction factor [1, 21]: >4.87 | logarithmic reduction factor [1, 22]: >4.78 | logarithmic reduction factor [1, 23]: >4.67 | logarithmic reduction factor [2, 4]: <1.85 | logarithmic reduction factor [2, 5]: <1.79 | logarithmic reduction factor [2, 6]: <1.71 | logarithmic reduction factor [2, 7]: <1.81 | logarithmic reduction factor [2, 8]: <1.85 | logarithmic reduction factor [2, 9]: <1.79 | logarithmic reduction factor [2, 10]: <1.71 | logarithmic reduction factor [2, 11]: 3.19 | logarithmic reduction factor [2, 12]: <1.85 | logarithmic reduction factor [2, 13]: <1.79 | logarithmic reduction factor [2, 14]: 3.35 | logarithmic reduction factor [2, 15]: 3.89 | logarithmic reduction factor [2, 16]: <1.85 | logarithmic reduction factor [2, 17]: <1.79 | logarithmic reduction factor [2, 18]: 4.18 | logarithmic reduction factor [2, 19]: >5.81 | logarithmic reduction factor [2, 20]: <1.85 | logarithmic reduction factor [2, 21]: 4.14 | logarithmic reduction factor [2, 22]: 4.76 | logarithmic reduction factor [2, 23]: >5.81 | logarithmic reduction factor [3, 4]: 4.12 | logarithmic reduction factor [3, 5]: >5.73 | logarithmic reduction factor [3, 6]: >5.75 | logarithmic reduction factor [3, 7]: >5.86 | logarithmic reduction factor [3, 8]: 4.58 | logarithmic reduction factor [3, 9]: >5.73 | logarithmic reduction factor [3, 10]: >5.75 | logarithmic reduction factor [3, 11]: >5.86 | logarithmic reduction factor [3, 12]: 4.55 | logarithmic reduction factor [3, 13]: >5.73 | logarithmic reduction factor [3, 14]: >5.75 | logarithmic reduction factor [3, 15]: >5.86 | logarithmic reduction factor [3, 16]: 4.48 | logarithmic reduction factor [3, 17]: >5.73 | logarithmic reduction factor [3, 18]: >5.75 | logarithmic reduction factor [3, 19]: >5.86 | logarithmic reduction factor [3, 20]: 5.44 | logarithmic reduction factor [3, 21]: >5.73 | logarithmic reduction factor [3, 22]: >5.75 | logarithmic reduction factor [3, 23]: >5.86
